# Patent publication US20080146617A1, “Methods of treating inflammatory diseases” (Roche Palo Alto LLC, priority 2006, published 2008)
# Read-outs that look alike come from different tables or passages of the source.
# Experiments:
# Experiment in all cases: KinomeScan kinase profiling
# Type in all cases: binding
# [1] = target: T1, CDK5 (Homo sapiens, UniProt Q00535)
# T1 construct: purchased Ambit Biosciences (San Diego, Calif.)
# [2] = target: T2, CSNK1E (Homo sapiens, UniProt P49674)
# T2 construct: purchased Ambit Biosciences (San Diego, Calif.)
# [3] = target: T3, LIMK1 (Homo sapiens, UniProt P53667)
# T3 construct: purchased Ambit Biosciences (San Diego, Calif.)
# [4] = target: T4, p38-beta (Homo sapiens, UniProt Q15759)
# T4 construct: purchased Ambit Biosciences (San Diego, Calif.)
# [5] = target: T5, PHKG1 (Homo sapiens, UniProt Q16816)
# T5 construct: purchased Ambit Biosciences (San Diego, Calif.)
# [6] = target: T6, ACK1 (Homo sapiens, UniProt Q07912)
# T6 construct: purchased Ambit Biosciences (San Diego, Calif.)
# Source text: (§1) The selectivity of a given CK1δ, CK1ε or CK1δ-CK1ε inhibitor compound can be determined by testing the compound against a panel of known kinases. An example of such a kinase profiling technology is the “KinomeScan” from Ambit Biosciences in which compounds can be screened for their modulatory activities against more than 200 known kinases.
# [7] = target: T7, AKT1 (Homo sapiens, UniProt P31749)
# T7 construct: purchased Ambit Biosciences (San Diego, Calif.)
# Source text: as §1
# [8] = target: T8, AURKC (Homo sapiens, UniProt Q9UQB9)
# T8 construct: purchased Ambit Biosciences (San Diego, Calif.)
# Source text: as §1
# [9] = target: T9, BTK (Homo sapiens, UniProt Q06187)
# T9 construct: purchased Ambit Biosciences (San Diego, Calif.)
# Source text: as §1
# [10] = target: T10, CAMK1 (Homo sapiens, UniProt Q14012)
# T10 construct: purchased Ambit Biosciences (San Diego, Calif.)
# Source text: as §1
# [11] = target: T11, CAMK1D (Homo sapiens, UniProt Q8IU85)
# T11 construct: purchased Ambit Biosciences (San Diego, Calif.)
# Source text: as §1
# [12] = target: T12, CAMK1G (Homo sapiens, UniProt Q96NX5)
# T12 construct: purchased Ambit Biosciences (San Diego, Calif.)
# Source text: as §1
# [13] = target: T13, CAMK2A (Homo sapiens, UniProt Q9UQM7)
# T13 construct: purchased Ambit Biosciences (San Diego, Calif.)
# Source text: as §1
# [14] = target: T14, CAMK2D (Homo sapiens, UniProt Q13557)
# T14 construct: purchased Ambit Biosciences (San Diego, Calif.)
# Source text: as §1
# [15] = target: T15, CAMKK2 (Homo sapiens, UniProt Q96RR4)
# T15 construct: purchased Ambit Biosciences (San Diego, Calif.)
# Source text: as §1
# [16] = target: T16, CLK1 (Homo sapiens, UniProt P49759)
# T16 construct: purchased Ambit Biosciences (San Diego, Calif.)
# Source text: as §1
# [17] = target: T17, CSK (Homo sapiens, UniProt P41240)
# T17 construct: purchased Ambit Biosciences (San Diego, Calif.)
# Source text: as §1
# [18] = target: T18, CSNK1G2 (Homo sapiens, UniProt P78368)
# T18 construct: purchased Ambit Biosciences (San Diego, Calif.)
# Source text: as §1
# [19] = target: T19, DAPK3 (Homo sapiens, UniProt O43293)
# T19 construct: purchased Ambit Biosciences (San Diego, Calif.)
# Source text: as §1
# [20] = target: T20, EPHA4 (Homo sapiens, UniProt P54764)
# T20 construct: purchased Ambit Biosciences (San Diego, Calif.)
# Source text: as §1
# [21] = target: T21, FES (Homo sapiens, UniProt P07332)
# T21 construct: purchased Ambit Biosciences (San Diego, Calif.)
# Source text: as §1
# [22] = target: T22, FLT3 (Homo sapiens, UniProt P36888)
# T22 construct: purchased Ambit Biosciences (San Diego, Calif.)
# Source text: as §1
# [23] = target: T23, GAK (Homo sapiens, UniProt O14976)
# T23 construct: purchased Ambit Biosciences (San Diego, Calif.)
# Source text: as §1
# [24] = target: T24, IGF1R (Homo sapiens, UniProt P08069)
# T24 construct: purchased Ambit Biosciences (San Diego, Calif.)
# Source text: as §1
# [25] = target: T25, INSR (Homo sapiens, UniProt P06213)
# T25 construct: purchased Ambit Biosciences (San Diego, Calif.)
# Source text: as §1
# [26] = target: T26, LYN (Homo sapiens, UniProt P07948)
# T26 construct: purchased Ambit Biosciences (San Diego, Calif.)
# Source text: as §1
# [27] = target: T27, MYLK2 (Homo sapiens, UniProt Q9H1R3)
# T27 construct: purchased Ambit Biosciences (San Diego, Calif.)
# Source text: as §1
# [28] = target: T28, NEK2 (Homo sapiens, UniProt P51955)
# T28 construct: purchased Ambit Biosciences (San Diego, Calif.)
# Source text: as §1
# [29] = target: T29, PAK7/PAK5 (Homo sapiens, UniProt Q9P286)
# T29 construct: purchased Ambit Biosciences (San Diego, Calif.)
# Source text: as §1
# [30] = target: T30, PDGFRA (Homo sapiens, UniProt P16234)
# T30 construct: purchased Ambit Biosciences (San Diego, Calif.)
# Source text: as §1
# [31] = target: T31, PHKG2 (Homo sapiens, UniProt P15735)
# T31 construct: purchased Ambit Biosciences (San Diego, Calif.)
# Source text: as §1
# [32] = target: T32, PIM2 (Homo sapiens, UniProt Q9P1W9)
# T32 construct: purchased Ambit Biosciences (San Diego, Calif.)
# Source text: as §1
# [33] = target: T33, PLK4 (Homo sapiens, UniProt O00444)
# T33 construct: purchased Ambit Biosciences (San Diego, Calif.)
# Source text: as §1
# [34] = target: T34, PTK2B (Homo sapiens, UniProt Q14289)
# T34 construct: purchased Ambit Biosciences
# Source text: as §1
# [35] = target: T35, ROS1 (Homo sapiens, UniProt P08922)
# T35 construct: purchased Ambit Biosciences
# Source text: as §1
# [36] = target: T36, STK17B (Homo sapiens, UniProt O94768)
# T36 construct: purchased Ambit Biosciences
# Source text: as §1
# [37] = target: T37, TNIK (Homo sapiens, UniProt Q9UKE5)
# T37 construct: purchased Ambit Biosciences
# Source text: as §1
# [38] = target: T38, ULK3(mouse) (Mus musculus, UniProt Q3U3Q1)
# T38 construct: purchased Ambit Biosciences (San Diego, Calif.)
# Source text: as §1
# [39] = target: T39, p38-gamma (Homo sapiens, UniProt P53778)
# T39 construct: purchased Ambit Biosciences (San Diego, Calif.)
# Source text: as §1
# [40] = target: T40, STK4 (Homo sapiens, UniProt Q13043)
# T40 construct: purchased Ambit Biosciences
# T2 sequence (P49674 whole entry): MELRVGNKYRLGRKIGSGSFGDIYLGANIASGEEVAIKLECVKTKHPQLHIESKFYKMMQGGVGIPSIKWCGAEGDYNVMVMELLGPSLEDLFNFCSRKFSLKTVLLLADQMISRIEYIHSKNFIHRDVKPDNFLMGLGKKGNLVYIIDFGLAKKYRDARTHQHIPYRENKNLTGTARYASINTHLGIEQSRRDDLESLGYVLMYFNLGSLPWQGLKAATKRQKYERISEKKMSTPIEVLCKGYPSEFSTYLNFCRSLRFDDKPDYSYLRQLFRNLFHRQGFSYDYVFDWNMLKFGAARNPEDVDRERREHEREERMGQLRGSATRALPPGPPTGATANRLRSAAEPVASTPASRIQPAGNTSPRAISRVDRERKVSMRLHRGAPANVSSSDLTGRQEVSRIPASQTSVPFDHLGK
# T33 sequence (O00444 whole entry): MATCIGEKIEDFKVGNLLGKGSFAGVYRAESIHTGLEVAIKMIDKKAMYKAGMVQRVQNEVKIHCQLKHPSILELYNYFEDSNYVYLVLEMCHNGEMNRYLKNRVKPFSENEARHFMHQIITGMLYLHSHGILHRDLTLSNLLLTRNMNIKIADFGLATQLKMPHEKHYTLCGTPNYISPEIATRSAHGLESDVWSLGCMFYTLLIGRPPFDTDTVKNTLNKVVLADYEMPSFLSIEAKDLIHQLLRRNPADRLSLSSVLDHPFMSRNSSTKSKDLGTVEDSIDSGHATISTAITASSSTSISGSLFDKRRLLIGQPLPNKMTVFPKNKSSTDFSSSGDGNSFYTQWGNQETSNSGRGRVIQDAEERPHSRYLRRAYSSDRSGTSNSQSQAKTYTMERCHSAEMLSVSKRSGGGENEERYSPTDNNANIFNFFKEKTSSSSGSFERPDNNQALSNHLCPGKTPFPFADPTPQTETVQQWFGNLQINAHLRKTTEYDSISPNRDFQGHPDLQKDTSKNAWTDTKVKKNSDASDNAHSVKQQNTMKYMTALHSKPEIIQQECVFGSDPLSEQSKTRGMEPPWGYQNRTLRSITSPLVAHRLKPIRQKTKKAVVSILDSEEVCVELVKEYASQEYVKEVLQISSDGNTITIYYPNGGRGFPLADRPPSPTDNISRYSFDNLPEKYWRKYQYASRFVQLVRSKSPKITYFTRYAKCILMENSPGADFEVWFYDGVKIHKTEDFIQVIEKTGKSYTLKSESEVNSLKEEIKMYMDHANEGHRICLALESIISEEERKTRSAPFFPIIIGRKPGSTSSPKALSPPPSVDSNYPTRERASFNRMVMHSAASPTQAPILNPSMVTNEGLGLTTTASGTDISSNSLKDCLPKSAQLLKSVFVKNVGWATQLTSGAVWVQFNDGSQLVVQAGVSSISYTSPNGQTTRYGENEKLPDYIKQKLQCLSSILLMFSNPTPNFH
# T15 sequence (Q96RR4 whole entry): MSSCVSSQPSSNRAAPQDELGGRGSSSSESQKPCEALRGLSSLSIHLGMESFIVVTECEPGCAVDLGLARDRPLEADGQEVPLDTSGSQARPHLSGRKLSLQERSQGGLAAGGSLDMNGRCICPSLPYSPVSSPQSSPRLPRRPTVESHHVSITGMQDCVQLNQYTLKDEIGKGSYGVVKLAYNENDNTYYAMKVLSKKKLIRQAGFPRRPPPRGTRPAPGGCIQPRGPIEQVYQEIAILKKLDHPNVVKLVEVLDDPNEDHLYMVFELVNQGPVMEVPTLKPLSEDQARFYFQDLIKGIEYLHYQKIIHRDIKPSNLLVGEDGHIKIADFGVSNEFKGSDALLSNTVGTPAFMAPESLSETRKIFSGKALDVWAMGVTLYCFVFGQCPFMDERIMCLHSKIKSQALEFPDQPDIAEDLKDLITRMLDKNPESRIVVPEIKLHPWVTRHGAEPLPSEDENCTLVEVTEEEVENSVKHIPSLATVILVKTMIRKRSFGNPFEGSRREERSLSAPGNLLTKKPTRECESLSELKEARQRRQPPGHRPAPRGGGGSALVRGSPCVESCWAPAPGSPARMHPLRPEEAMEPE
# T7 sequence (P31749 whole entry): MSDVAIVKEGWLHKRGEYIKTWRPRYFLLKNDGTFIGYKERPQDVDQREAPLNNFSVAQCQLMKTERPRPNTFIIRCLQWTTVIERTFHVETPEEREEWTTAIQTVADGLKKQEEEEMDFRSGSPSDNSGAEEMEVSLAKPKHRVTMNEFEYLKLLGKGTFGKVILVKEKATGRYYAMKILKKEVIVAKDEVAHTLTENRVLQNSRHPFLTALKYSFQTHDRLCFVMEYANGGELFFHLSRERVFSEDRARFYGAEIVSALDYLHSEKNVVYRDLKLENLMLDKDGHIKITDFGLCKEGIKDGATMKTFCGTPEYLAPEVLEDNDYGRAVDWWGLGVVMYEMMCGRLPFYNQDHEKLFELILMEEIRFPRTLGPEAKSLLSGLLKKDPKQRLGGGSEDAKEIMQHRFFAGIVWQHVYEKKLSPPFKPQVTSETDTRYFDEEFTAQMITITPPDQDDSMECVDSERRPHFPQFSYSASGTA
# T9 sequence (Q06187 whole entry): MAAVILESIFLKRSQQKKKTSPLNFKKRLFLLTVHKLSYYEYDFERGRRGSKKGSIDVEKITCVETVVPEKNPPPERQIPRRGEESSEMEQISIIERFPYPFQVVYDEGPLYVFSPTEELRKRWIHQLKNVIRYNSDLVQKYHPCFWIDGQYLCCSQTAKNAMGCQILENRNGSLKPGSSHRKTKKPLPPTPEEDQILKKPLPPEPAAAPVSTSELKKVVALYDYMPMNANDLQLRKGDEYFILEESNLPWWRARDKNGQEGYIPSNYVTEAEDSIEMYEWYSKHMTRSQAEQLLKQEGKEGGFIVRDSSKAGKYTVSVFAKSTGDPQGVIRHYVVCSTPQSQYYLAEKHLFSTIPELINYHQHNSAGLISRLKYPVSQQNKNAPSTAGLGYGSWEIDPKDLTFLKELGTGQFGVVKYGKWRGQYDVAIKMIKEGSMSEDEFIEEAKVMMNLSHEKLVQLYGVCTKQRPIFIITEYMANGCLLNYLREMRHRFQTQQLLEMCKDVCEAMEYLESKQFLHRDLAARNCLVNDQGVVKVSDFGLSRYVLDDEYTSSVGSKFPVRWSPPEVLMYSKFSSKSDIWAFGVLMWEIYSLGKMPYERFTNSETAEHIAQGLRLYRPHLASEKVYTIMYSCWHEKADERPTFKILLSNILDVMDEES
# T29 sequence (Q9P286 whole entry): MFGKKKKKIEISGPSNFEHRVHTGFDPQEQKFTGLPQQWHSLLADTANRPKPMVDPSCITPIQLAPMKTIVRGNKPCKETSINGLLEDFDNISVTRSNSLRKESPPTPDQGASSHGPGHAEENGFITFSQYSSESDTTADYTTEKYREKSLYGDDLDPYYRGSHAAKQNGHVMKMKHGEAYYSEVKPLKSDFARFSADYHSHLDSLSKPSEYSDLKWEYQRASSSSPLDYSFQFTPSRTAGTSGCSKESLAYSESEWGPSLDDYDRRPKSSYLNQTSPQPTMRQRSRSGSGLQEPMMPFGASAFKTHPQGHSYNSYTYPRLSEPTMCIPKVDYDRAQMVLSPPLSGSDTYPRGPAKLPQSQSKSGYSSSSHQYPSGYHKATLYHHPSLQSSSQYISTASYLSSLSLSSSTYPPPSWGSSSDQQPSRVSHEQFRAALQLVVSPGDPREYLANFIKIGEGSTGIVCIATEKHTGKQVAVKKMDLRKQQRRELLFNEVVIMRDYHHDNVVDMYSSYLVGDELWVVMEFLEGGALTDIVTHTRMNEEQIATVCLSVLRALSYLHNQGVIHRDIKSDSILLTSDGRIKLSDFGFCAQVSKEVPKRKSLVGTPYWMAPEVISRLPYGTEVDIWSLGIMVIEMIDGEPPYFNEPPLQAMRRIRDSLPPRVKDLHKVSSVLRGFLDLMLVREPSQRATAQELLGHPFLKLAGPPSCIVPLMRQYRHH
# T34 sequence (Q14289 whole entry): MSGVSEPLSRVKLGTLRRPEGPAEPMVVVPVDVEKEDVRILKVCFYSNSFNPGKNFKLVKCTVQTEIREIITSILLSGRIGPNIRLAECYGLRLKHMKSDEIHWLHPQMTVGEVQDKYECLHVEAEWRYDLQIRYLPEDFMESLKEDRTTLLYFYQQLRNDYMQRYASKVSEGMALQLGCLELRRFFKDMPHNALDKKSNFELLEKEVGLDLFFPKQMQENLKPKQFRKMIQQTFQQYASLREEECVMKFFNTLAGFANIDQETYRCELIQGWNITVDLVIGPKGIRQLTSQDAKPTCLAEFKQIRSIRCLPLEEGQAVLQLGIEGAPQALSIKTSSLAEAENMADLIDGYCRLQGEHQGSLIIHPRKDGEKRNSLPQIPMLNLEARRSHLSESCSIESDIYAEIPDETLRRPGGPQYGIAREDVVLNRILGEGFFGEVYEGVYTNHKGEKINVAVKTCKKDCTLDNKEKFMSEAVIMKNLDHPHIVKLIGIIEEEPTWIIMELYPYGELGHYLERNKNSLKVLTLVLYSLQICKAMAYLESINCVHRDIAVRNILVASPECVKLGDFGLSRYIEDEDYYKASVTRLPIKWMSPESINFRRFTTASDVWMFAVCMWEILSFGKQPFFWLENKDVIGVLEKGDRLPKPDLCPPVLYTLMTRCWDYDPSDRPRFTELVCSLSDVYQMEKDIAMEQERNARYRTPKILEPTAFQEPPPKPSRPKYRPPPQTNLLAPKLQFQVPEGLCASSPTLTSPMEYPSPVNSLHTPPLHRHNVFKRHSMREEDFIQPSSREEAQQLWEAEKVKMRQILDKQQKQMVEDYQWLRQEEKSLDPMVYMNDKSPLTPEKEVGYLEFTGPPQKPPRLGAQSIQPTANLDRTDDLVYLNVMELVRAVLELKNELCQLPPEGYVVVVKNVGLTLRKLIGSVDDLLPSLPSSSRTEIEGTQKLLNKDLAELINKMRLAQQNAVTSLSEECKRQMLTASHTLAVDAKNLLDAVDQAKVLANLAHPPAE
smiles,measurement,setting,value
"NC(=O)c1ccc(-c2nc(-c3ccc4c(c3)OCO4)c(-c3ccccn3)[nH]2)cc1 [SB431542, 4-(4-benzo-[1,3]dioxol-5-yl-5-pyridin-2-yl-1H-imidazol-2-yl)benzamide]",inhibition at 10 µM,[1],< 50%
same,% Inhibition,"[2]; 10 μM, CSNK1E (CK1ε isoform)",100%
same,inhibition at 10 µM,"[2]; 10 μM, CSNK1E (CK1ε isoform), read-out: % Inhibition",100%
same,inhibition at 10 µM,[3],< 50%
same,inhibition at 10 µM,[4],< 50%
same,inhibition at 10 µM,[5],< 50%
same,inhibition at 10 µM,[6],< 50%
same,inhibition at 10 µM,[7],< 50%
same,inhibition at 10 µM,[8],< 50%
same,inhibition at 10 µM,[9],< 50%
same,inhibition at 10 µM,[10],< 50%
same,inhibition at 10 µM,[11],< 50%
same,inhibition at 10 µM,[12],< 50%
same,inhibition at 10 µM,[13],< 50%
same,inhibition at 10 µM,[14],< 50%
same,inhibition at 10 µM,[15],< 50%
same,inhibition at 10 µM,[16],< 50%
same,inhibition at 10 µM,[17],< 50%
same,inhibition at 10 µM,"[18]; 10 μM, CSNK1G2, read-out: % Inhibition",< 50%
same,inhibition at 10 µM,[19],< 50%
same,inhibition at 10 µM,[20],< 50%
same,inhibition at 10 µM,[21],< 50%
same,inhibition at 10 µM,[22],< 50%
same,inhibition at 10 µM,[23],< 50%
same,inhibition at 10 µM,[24],< 50%
same,inhibition at 10 µM,[25],< 50%
same,inhibition at 10 µM,[26],< 50%
same,inhibition at 10 µM,[27],< 50%
same,inhibition at 10 µM,[28],< 50%
same,inhibition at 10 µM,[29],< 50%
same,inhibition at 10 µM,[30],< 50%
same,inhibition at 10 µM,[31],< 50%
same,inhibition at 10 µM,[32],< 50%
same,inhibition at 10 µM,[33],< 50%
same,inhibition at 10 µM,[34],< 50%
same,inhibition at 10 µM,[35],< 50%
same,inhibition at 10 µM,[36],< 50%
same,inhibition at 10 µM,[37],< 50%
same,inhibition at 10 µM,[38],< 50%
same,inhibition at 10 µM,[39],< 50%
same,inhibition at 10 µM,[40],< 50%
"NC(=O)c1ccc(-c2nc(-c3ccc4c(c3)OCCO4)c(-c3ccccn3)[nH]2)cc1 [D4476, 4-[4-(2,3-Dihydro-benzo[1,4]dioxin-6-yl)-5-pyridin-2-yl-1H-imidazol-2-yl]benzamide]",inhibition at 10 µM,[1],< 50%
same,inhibition at 10 µM,[2],100%
same,% Inhibition,"[2]; 10 μM, CSNK1E (CK1ε isoform)",100%
same,inhibition at 10 µM,[3],< 50%
same,inhibition at 10 µM,[4],< 50%
same,inhibition at 10 µM,[5],< 50%
same,inhibition at 10 µM,[6],< 50%
same,inhibition at 10 µM,[7],< 50%
same,inhibition at 10 µM,[8],< 50%
same,inhibition at 10 µM,[9],< 50%
same,inhibition at 10 µM,[10],< 50%
same,inhibition at 10 µM,[11],< 50%
same,inhibition at 10 µM,[12],< 50%
same,inhibition at 10 µM,[13],< 50%
same,inhibition at 10 µM,[14],< 50%
same,inhibition at 10 µM,[15],< 50%
same,inhibition at 10 µM,[16],< 50%
same,inhibition at 10 µM,[17],< 50%
same,inhibition at 10 µM,[18],< 50%
same,inhibition at 10 µM,[19],< 50%
same,inhibition at 10 µM,[20],< 50%
same,inhibition at 10 µM,[21],< 50%
same,inhibition at 10 µM,[22],< 50%
same,inhibition at 10 µM,[23],< 50%
same,inhibition at 10 µM,[24],< 50%
same,inhibition at 10 µM,[25],< 50%
same,inhibition at 10 µM,[26],< 50%
same,inhibition at 10 µM,[27],< 50%
same,inhibition at 10 µM,[28],< 50%
same,inhibition at 10 µM,[29],< 50%
same,inhibition at 10 µM,[30],< 50%
same,inhibition at 10 µM,[31],< 50%
same,inhibition at 10 µM,[32],< 50%
same,inhibition at 10 µM,[33],< 50%
same,inhibition at 10 µM,[34],< 50%
same,inhibition at 10 µM,[35],< 50%
same,inhibition at 10 µM,[36],< 50%
same,inhibition at 10 µM,[37],< 50%
same,inhibition at 10 µM,[38],< 50%
same,inhibition at 10 µM,[39],< 50%
same,inhibition at 10 µM,[40],< 50%
